Non-standard residues stand in square brackets, D forms with d. Primed or numbered codes have the meaning given here. No end group written: not given here. *: point of attachment. NMeW = CN[C@@H](Cc1c[nH]c2ccccc12)C(=O)O; Phe(4-F) = N[C@@H](Cc1ccc(F)cc1)C(=O)O; Arg(Me) = CNC(=N)NCCC[C@H](N)C(=O)O; 2Thi = N[C@@H](Cc1cccs1)C(=O)O; pGlu = O=C1CC[C@@H](C(=O)O)N1; Adipoyl′ = not defined here; Orn = NCCC[C@H](N)C(=O)O; Propionyl = CCC(=O)*; azaGly = NNC(=O)O; For = O=C*
Key:
[1] = Action of reducing testosterone level in blood in mature male rat (1 mM peptide in 50% DMSO, ALZET osmotic pump); assay type: in vivo; conditions: 1 mM peptide in 50% DMSO aqueous solution, ALZET osmotic pump s.c., six days
Protocol: The peptide was encapsulated in five ALZET osmotic pump (Model 2001, 0.2 ml of volume, releasing rate 0.001 ml/hr, DURECT Corporation). The ALZET pumps encapsulated with the peptide solution were implanted to dorsal subcutaneous of five male CD (SD) IGS rat at nine weeks age (Charles River Japan, Inc.) anesthesized with ether for one pump to one rat. Separately, for negative controls, the ALZET osmotic pumps encapsulated with distilled water were implanted to five male CD (SD) IGS rat (Charles River Japan, Inc.) The rats were bred for six days under the normal conditions. After weighing, blood was collected by decapitation. To 1 ml of blood, 0.03 ml of aprotinin (Trasylol, Byer) solution containing 0.1 g/ml EDTA 2Na was added. The plasma was isolated by centrifugation at 1,800×g for 25 minutes and collected. The thus obtained plasma, 0.05 ml was effected by radioimmunoassay. (DPC Total Testosterone Kit, Diagnostic Products Corporation) to measure testosterone level in blood of each rat. The value beneath measuring limit of radioimmunoassay (0.04 ng/ml as concentration of plasma) was treated as zero. The mean values for testosterone level of five rats, to which the peptide was given, was calculated and the relative value (percentage) for the mean values of testosterone level of five rats, to which distilled watrer was given, was estimated.

hOT7T175 [2] = biological target: T1, hOT7T175 (Homo sapiens, UniProt Q969F8, L364H); assay type: cell-based; conditions: hOT7T175/CHO, FLIPR, evaluation for 40 seconds after initiation of the reaction
T1 construct: expressed in transfected cells
T1 sequence (Q969F8 whole entry L364H): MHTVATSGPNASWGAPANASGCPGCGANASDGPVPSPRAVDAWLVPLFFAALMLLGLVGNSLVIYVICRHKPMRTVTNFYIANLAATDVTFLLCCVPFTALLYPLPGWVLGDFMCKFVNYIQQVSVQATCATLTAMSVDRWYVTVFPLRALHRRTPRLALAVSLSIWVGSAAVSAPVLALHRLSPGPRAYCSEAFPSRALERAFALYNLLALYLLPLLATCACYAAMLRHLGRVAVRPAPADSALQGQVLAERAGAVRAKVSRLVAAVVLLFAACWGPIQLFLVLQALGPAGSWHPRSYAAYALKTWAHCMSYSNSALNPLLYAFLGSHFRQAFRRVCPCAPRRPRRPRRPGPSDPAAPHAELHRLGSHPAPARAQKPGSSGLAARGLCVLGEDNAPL
Protocol: The intracellular Ca ion level-increasing activity was measured using FLIPR as in TEST EXAMPLE 2.

hOT7T175 [3] = biological target: T2, hOT7T175 (Homo sapiens, UniProt Q969F8); assay: Intracellular Ca ion level-increasing activity using FLIPR (180 seconds; specific activity to Metastin (1-54)); assay type: cell-based; conditions: hOT7T175/CHO, change in intracellular calcium ion level for 180 seconds, Tables 21-23
T2 construct: expressed in transfected cells
T2 sequence (Q969F8 whole entry L364H): as above

Row | Substance | Testosterone level in Blood [1] [%] | Specific Act. (EC50/MS10 EC50) (hOT7T175 [2]) | intracellular Ca ion level-increasing activity [specific activity to Metastin (1-54)] (hOT7T175 [3])
1 | D-Tyr-D-Pya(4)-Asn-Thr-Phe-AzaGly-Leu-Arg(Me)-Trp-NH2 [Compound No. 501] | 2 | 1.1 | 10
2 | Ac-Tyr-D-Tyr-D-Trp-Asn-Thr-Phe-AzaGly-Leu-Arg(Me)-Trp-NH2 (Ac-Y[dY][dW]NTF[azaGly]L[Arg(Me)]W-NH2; SMILES CNC(=N)NCCC[C@H](NC(=O)[C@H](CC(C)C)NC(=O)NNC(=O)[C@H](Cc1ccccc1)NC(=O)[C@@H](NC(=O)[C@H](CC(N)=O)NC(=O)[C@@H](Cc1c[nH]c2ccccc12)NC(=O)[C@@H](Cc1ccc(O)cc1)NC(=O)[C@H](Cc1ccc(O)cc1)NC(C)=O)[C@@H](C)O)C(=O)N[C@@H](Cc1c[nH]c2ccccc12)C(N)=O) [Compound No. 676] | 2 | 1.4 | 
3 | Ac-D-Tyr-Pro-Asn-Thr-Phe-AzaGly-Leu-Arg(Me)-Trp-NH2 (Ac-[dY]PNTF[azaGly]L[Arg(Me)]W-NH2; SMILES CNC(=N)NCCC[C@H](NC(=O)[C@H](CC(C)C)NC(=O)NNC(=O)[C@H](Cc1ccccc1)NC(=O)[C@@H](NC(=O)[C@H](CC(N)=O)NC(=O)[C@@H]1CCCN1C(=O)[C@@H](Cc1ccc(O)cc1)NC(C)=O)[C@@H](C)O)C(=O)N[C@@H](Cc1c[nH]c2ccccc12)C(N)=O) [Compound No. 657] | 2 | 1.1 | 
4 | Ac-D-Trp-D-Trp-Asn-Thr-Phe-AzaGly-Leu-Arg(Me)-Trp-NH2 (Ac-[dW][dW]NTF[azaGly]L[Arg(Me)]W-NH2; SMILES CNC(=N)NCCC[C@H](NC(=O)[C@H](CC(C)C)NC(=O)NNC(=O)[C@H](Cc1ccccc1)NC(=O)[C@@H](NC(=O)[C@H](CC(N)=O)NC(=O)[C@@H](Cc1c[nH]c2ccccc12)NC(=O)[C@@H](Cc1c[nH]c2ccccc12)NC(C)=O)[C@@H](C)O)C(=O)N[C@@H](Cc1c[nH]c2ccccc12)C(N)=O) [Compound No. 663] | 2 | 0.8 | 
5 | G[dY][dW]NTF[azaGly]L[Arg(Me)]W-NH2 [Compound No. 648] | 2 | 1.6 | 
6 | Ac-[dY][dW]NTF[azaGly]L[Arg(Me)]Y-NH2 [Compound No. 591] | 2 | 1.2 | 
7 | Ac-[dY][dF]NTF[azaGly]L[Arg(Me)]W-NH2 [Compound No. 627] | 2 | 1.6 | 
8 | Ac-D-Tyr-NMeTrp-Asn-Thr-Phe-AzaGly-Leu-Arg(Me)-Trp-NH2 (Ac-[dY][NMeW]NTF[azaGly]L[Arg(Me)]W-NH2; SMILES CNC(=N)NCCC[C@H](NC(=O)[C@H](CC(C)C)NC(=O)NNC(=O)[C@H](Cc1ccccc1)NC(=O)[C@@H](NC(=O)[C@H](CC(N)=O)NC(=O)[C@H](Cc1c[nH]c2ccccc12)N(C)C(=O)[C@@H](Cc1ccc(O)cc1)NC(C)=O)[C@@H](C)O)C(=O)N[C@@H](Cc1c[nH]c2ccccc12)C(N)=O) [Compound No. 672] | 2 | 2.1 | 
9 | Ac-D-Tyr-D-Tyr-D-Trp-Asn-Thr-Phe-AzaGly-Leu-Arg(Me)-Trp-NH2 (Ac-[dY][dY][dW]NTF[azaGly]L[Arg(Me)]W-NH2; SMILES CNC(=N)NCCC[C@H](NC(=O)[C@H](CC(C)C)NC(=O)NNC(=O)[C@H](Cc1ccccc1)NC(=O)[C@@H](NC(=O)[C@H](CC(N)=O)NC(=O)[C@@H](Cc1c[nH]c2ccccc12)NC(=O)[C@@H](Cc1ccc(O)cc1)NC(=O)[C@@H](Cc1ccc(O)cc1)NC(C)=O)[C@@H](C)O)C(=O)N[C@@H](Cc1c[nH]c2ccccc12)C(N)=O) [Compound No. 651] | 2 | 0.7 | 
10 | Ac-D-Tyr-D-Trp-Asn-Thr-Phe-AzaGly-Leu-Arg(Me2)sym-Trp-NH2 [Compound No. 608] | 2 | 2.2 | 
11 | Propionyl-[dY][dW]NTF[azaGly]L[Arg(Me)]W-NH2 [Compound No. 613] | 2 | 0.4 | 
12 | Tyr-D-Tyr-D-Trp-Asn-Thr-Phe-AzaGly-Leu-Arg(Me)-Trp-NH2 (Y[dY][dW]NTF[azaGly]L[Arg(Me)]W-NH2; N-terminus assumed; SMILES CNC(=N)NCCC[C@H](NC(=O)[C@H](CC(C)C)NC(=O)NNC(=O)[C@H](Cc1ccccc1)NC(=O)[C@@H](NC(=O)[C@H](CC(N)=O)NC(=O)[C@@H](Cc1c[nH]c2ccccc12)NC(=O)[C@@H](Cc1ccc(O)cc1)NC(=O)[C@@H](N)Cc1ccc(O)cc1)[C@@H](C)O)C(=O)N[C@@H](Cc1c[nH]c2ccccc12)C(N)=O) [Compound No. 675] | 2 | 0.8 | 
13 | 3-Pyridinepropionyl-D-Trp-Asn-Thr-Phe-AzaGly-Leu-Arg(Me)-Trp-NH2 ({3‑Pyridinepropionyl}-[dW]NTF[azaGly]L[Arg(Me)]W-NH2) [Compound No. 670] | 2 | 0.9 | 
14 | Ac-[dL][dW]NTF[azaGly]L[Arg(Me)]W-NH2 [Compound No. 617] | 2 | 2.4 | 
15 | Ac-[dA][dW]NTF[azaGly]L[Arg(Me)]W-NH2 [Compound No. 616] | 2 | 1.1 | 
16 | Ac-[dY][dW]NTF[azaGly]L[Orn]W-NH2 [Compound No. 599] | 2 | 0.5 | 

Row | Substance | Testosterone level in Blood [1] [%] | Specific Act. (EC50/MS10 EC50) (hOT7T175 [2]) | intracellular Ca ion level-increasing activity [specific activity to Metastin (1-54)] (hOT7T175 [3])
17 | Ac-Y[dW]NTF[azaGly]L[Arg(Me)]W-NH2 [Compound No. 615] | 2 | 0.7 | 
18 | Ac-[dY][dW]NTF[azaGly]L[Arg(Me)][2Thi]-NH2 [Compound No. 590] | 2 | 1.4 | 
19 | Ac-G[dY][dW]NTF[azaGly]L[Arg(Me)]W-NH2 [Compound No. 649] | 2 | 1 | 
20 | Ac-D-Trp-Asn-Thr-Phe-AzaGly-Leu-Arg(Me)-Trp-NH2 (Ac-[dW]NTF[azaGly]L[Arg(Me)]W-NH2; SMILES CNC(=N)NCCC[C@H](NC(=O)[C@H](CC(C)C)NC(=O)NNC(=O)[C@H](Cc1ccccc1)NC(=O)[C@@H](NC(=O)[C@H](CC(N)=O)NC(=O)[C@@H](Cc1c[nH]c2ccccc12)NC(C)=O)[C@@H](C)O)C(=O)N[C@@H](Cc1c[nH]c2ccccc12)C(N)=O) [Compound No. 666] | 2 | 1.1 | 
21 | Adipoyl-D-Trp-Asn-Thr-Phe-AzaGly-Leu-Arg(Me)-Trp-NH2 ({Adipoyl′}-[dW]NTF[azaGly]L[Arg(Me)]W-NH2) [Compound No. 671] | 2 | 3.6 | 
22 | Ac-[dY][dW]NTF[azaGly]L[Arg(Me)][Phe(4-F)]-NH2 [Compound No. 592] | 2 | 1.1 | 
23 | For-[dY][dW]NTF[azaGly]L[Arg(Me)]W-NH2 [Compound No. 612] | 2 | 0.8 | 
24 | Ac-[dY][dK]NTF[azaGly]L[Arg(Me)]W-NH2 [Compound No. 629] | 2 | 3.4 | 
25 | Ac-[dY][dW]NT[Phe(4-F)][azaGly]L[Arg(Me)]W-NH2 [Compound No. 637] | 2 | 0.8 | 
26 | Ac-[dY][dW]NTF[azaGly]V[Arg(Me)]W-NH2 [Compound No. 642] | 2 | 3.7 | 
27 | Ac-D-Tyr-D-Pya(4)-Asn-Thr-Phe(4F)-AzaGly-Leu-Arg(Me)-Trp-NH2 [Compound No. 638] | 2 | 1.7 | 
28 | 6-Aminocaproyl-D-Trp-Asn-Thr-Phe-AzaGly-Leu-Arg(Me)-Trp-NH2 ({6‑Aminocaproyl}-[dW]NTF[azaGly]L[Arg(Me)]W-NH2) [Compound No. 674] | 2 | 2 | 
29 | Ac-D-Tyr-D-Pya(3)-Asn-Thr-Phe-AzaGly-Leu-Arg(Me)-Trp-NH2 [Compound No. 660] | 2 | 1.1 | 
30 | pGlu-D-Tyr-D-Trp-Asn-Thr-Phe-AzaGly-Leu-Arg(Me)-Trp-NH2 ([pGlu][dY][dW]NTF[azaGly]L[Arg(Me)]W-NH2; SMILES CNC(=N)NCCC[C@H](NC(=O)[C@H](CC(C)C)NC(=O)NNC(=O)[C@H](Cc1ccccc1)NC(=O)[C@@H](NC(=O)[C@H](CC(N)=O)NC(=O)[C@@H](Cc1c[nH]c2ccccc12)NC(=O)[C@@H](Cc1ccc(O)cc1)NC(=O)[C@@H]1CCC(=O)N1)[C@@H](C)O)C(=O)N[C@@H](Cc1c[nH]c2ccccc12)C(N)=O) [Compound No. 652] | 2 | 0.9 | 
31 | Ac-[dY][dW]NTF[azaGly]LRW-NH2 [Compound No. 600] | 2 | 0.3 | 
